Measured values published in US11691949B2, “Quinoline sulfonamide compounds and their use as antibacterial agents” (OTAGO INNOVATION LIMITED, priority 2017, dated 2023).
≈ marks a conversion by molar mass, not a printed value. Counter-ions that a name gives are not always drawn. Like-named read-outs stand apart in the source and are kept apart here.

Tests used:
Type in all cases: cell-based
S. aureus ATCC 6538 = test: MIC by broth microdilution, S. aureus; details: Staphylococcus aureus
Method: (§1) Antibacterial susceptibility testing was performed in triplicate (biological) by measuring minimum inhibitory concentrations (MICs) by broth microdilution in 96-well flat bottom microtiter plates (ThermoFisher Scientific, New Zealand). S. uberis ATCC 19436, S. aureus ATCC 6538, or E. coli ATCC 10596 cells grown overnight were diluted to an OD600 of approximately 0.025, so that the final concentration of cells in the MIC assay was approximately 5×10^5 cfu/mL in media as follows: S. uberis; Todd Hewitt Broth (THB), S. aureus; Tryptic Soy Broth (TSB) and Cation Adjusted Muller Hinton Broth (CAMHB), and E. coli; Lysogeny Borth (LB) and CAMHB, before being dispensed into microtiter wells. As required additional sterile Zinc Sulphate (Heptahydrate) was supplemented into the media, so the final concentration was 50 μM. Test compounds were added to starting wells and two-fold serial dilutions were undertaken to generate a range of inhibitor concentrations at a final volume of 200 μl. Media and test compound-free (untreated) controls were included in each microtiter plate in triplicate. After 24 h incubation at 37° C. and 200 rpm, the OD600 of wells were read using a Varioskan Flash plate reader (ThermoFisher Scientific, New Zealand). The MIC was reported as the lowest concentration of the test compound for which no growth occurred, as determined by OD600 readings. The minimum bactericidal concentration (MBC) was determined using the Miles-Misra drop-plate method to measure the viability of cells in response to test compound challenge.

E. coli ATCC 10596 = test: MIC by broth microdilution, E. coli; details: Escherichia coli
Method: as §1

S. uberis ATCC 19436 = test: MIC by broth microdilution, S. uberis; details: Streptococcus uberis
Method: as §1

[1] = ATCC6538, No Zinc, read-out: S. aureus ATCC 6538 MIC
[2] = ATCC6538, Zinc (50 μM), read-out: S. aureus ATCC 6538 MIC
[3] = ATCC 10536 / ATCC 10596, No Zinc, read-out: E. coli ATCC 10536 MIC
[4] = ATCC 10536 / ATCC 10596, Zinc (50 μM), read-out: E. coli ATCC 10536 MIC
[5] = ATCC19436, No Zinc, read-out: S. uberis ATCC 19436 MIC
[6] = ATCC19436, Zinc (50 μM), read-out: S. uberis ATCC 19436 MIC

Compound | MIC (S. aureus ATCC 6538; ATCC6538, read-out: S. aureus ATCC 6538 MIC, No Zinc) | MIC (S. aureus ATCC 6538; ATCC6538, read-out: S. aureus ATCC 6538 MIC, Zinc (50 μM)) | MIC (E. coli ATCC 10596; ATCC 10536 / ATCC 10596, read-out: E. coli ATCC 10536 MIC, No Zinc) | MIC (E. coli ATCC 10596; ATCC 10536 / ATCC 10596, read-out: E. coli ATCC 10536 MIC, Zinc (50 μM)) | MIC (S. uberis ATCC 19436; ATCC19436, read-out: S. uberis ATCC 19436 MIC, No Zinc) | MIC (S. uberis ATCC 19436; ATCC19436, read-out: S. uberis ATCC 19436 MIC, Zinc (50 μM)) | MIC (S. aureus ATCC 6538; [1]) | MIC (S. aureus ATCC 6538; [2]) | MIC (E. coli ATCC 10596; [3]) | MIC (E. coli ATCC 10596; [4]) | MIC (S. uberis ATCC 19436; [5]) | MIC (S. uberis ATCC 19436; [6])
O=C(O)CNCc1ccc2cccc(NS(=O)(=O)c3ccc(C(F)(F)F)cc3)c2n1 [ZDR043, N-(2-(((Carboxymethyl)amino)methyl)quinolin-8-yl)-4-(trifluoromethyl)benzenesulfonamide trifluoroacetate] | > 256 µg/mL | > 256 µg/mL | > 256 µg/mL | > 256 µg/mL | > 256 µg/mL | > 256 µg/mL |  |  |  |  |  | 
O=C(N/N=C/c1ccc2cccc(NS(=O)(=O)c3ccc(C(F)(F)F)cc3)c2n1)c1ccccc1 [ZDR045, (E)-N-(2-((2-Benzoylhydrazono)methyl)quinolin-8-yl)-4-(trifluoromethyl)benzenesulfonamide] |  |  |  |  |  |  | > 256 µg/mL | > 256 µg/mL | > 256 µg/mL | > 256 µg/mL | > 256 µg/mL | 0.125 µg/mL (≈ 0.251 µM)
NC(=S)N/N=C/c1ccc2cccc(NS(=O)(=O)c3ccc(C(F)(F)F)cc3)c2n1 [ZDR046, (E)-2-((8-((4-(Trifluoromethyl)phenyl)sulfonamido)quinolin-2-yl)methylene)hydrazine-1-carbothioamide] |  |  |  |  |  |  | 4 µg/mL (≈ 8.82 µM) | 4 µg/mL (≈ 8.82 µM) | > 256 µg/mL | > 256 µg/mL | 4 µg/mL (≈ 8.82 µM) | 1 µg/mL (≈ 2.21 µM)
CN(C)Cc1ccc2cccc(NS(=O)(=O)c3ccccc3)c2n1 [ZDR061, N-(2-((Dimethylamino)methyl)quinolin-8-yl)benzenesulfonamide] |  |  |  |  |  |  | > 256 µg/mL | 256 µg/mL (≈ 750 µM) | > 256 µg/mL | > 256 µg/mL | > 256 µg/mL | 0.25 µg/mL (≈ 0.732 µM)
Cc1ccc(S(=O)(=O)Nc2cccc3ccc(CN(C)C)nc23)cc1 [ZDR062, N-(2-((Dimethylamino)methyl)quinolin-8-yl)-4-methylbenzenesulfonamide] |  |  |  |  |  |  | 256 µg/mL (≈ 720 µM) | > 256 µg/mL | > 256 µg/mL | > 256 µg/mL | 256 µg/mL (≈ 720 µM) | 0.25 µg/mL (≈ 0.703 µM)
COc1ccc(S(=O)(=O)Nc2cccc3ccc(CN(C)C)nc23)cc1 [ZDR063, N-(2-((Dimethylamino)methyl)quinolin-8-yl)-4-methoxybenzenesulfonamide] |  |  |  |  |  |  | > 256 µg/mL | > 256 µg/mL | > 256 µg/mL | > 256 µg/mL | > 256 µg/mL | 0.25 µg/mL (≈ 0.673 µM)
CN(C)Cc1ccc2cccc(NS(=O)(=O)c3ccc(Cl)cc3)c2n1 [ZDR064, 4-Chloro-N-(2-((dimethylamino)methyl)quinolin-8-yl)benzenesulfonamide] |  |  |  |  |  |  | 128 µg/mL (≈ 341 µM) | 256 µg/mL (≈ 681 µM) | > 256 µg/mL | > 256 µg/mL | > 256 µg/mL | 0.0625 µg/mL (≈ 0.166 µM)
CN(C)Cc1ccc2cccc(NS(=O)(=O)c3ccc(F)cc3)c2n1 [ZDR065, N-(2-((Dimethylamino)methyl)quinolin-8-yl)-4-fluorobenzenesulfonamide] |  |  |  |  |  |  | 256 µg/mL (≈ 712 µM) | 256 µg/mL (≈ 712 µM) | > 256 µg/mL | > 256 µg/mL | > 256 µg/mL | 0.125 µg/mL (≈ 0.348 µM)
CN(C)Cc1ccc2cccc(NS(=O)(=O)c3ccc(OC(F)(F)F)cc3)c2n1 [ZDR066, N-(2-((Dimethylamino)methyl)quinolin-8-yl)-4-(trifluoromethoxy)benzenesulfonamide] |  |  |  |  |  |  | 256 µg/mL (≈ 602 µM) | > 256 µg/mL | > 256 µg/mL | > 256 µg/mL | 128 µg/mL (≈ 301 µM) | 0.0625 µg/mL (≈ 0.147 µM)
CN(C)Cc1ccc2cccc(NS(=O)(=O)c3ccc([N+](=O)[O-])cc3)c2n1 [ZDR067, N-(2-((Dimethylamino)methyl)quinolin-8-yl)-4-nitrobenzenesulfonamide] |  |  |  |  |  |  | 128 µg/mL (≈ 331 µM) | 256 µg/mL (≈ 662 µM) | > 256 µg/mL | > 256 µg/mL | 128 µg/mL (≈ 331 µM) | 0.125 µg/mL (≈ 0.323 µM)
CN(C)Cc1ccc2cccc(NS(=O)(=O)c3ccc(C#N)cc3)c2n1 [ZDR068, 4-Cyano-N-(2-((dimethylamino)methyl)quinolin-8-yl)benzenesulfonamide] |  |  |  |  |  |  | > 256 µg/mL | > 256 µg/mL | > 256 µg/mL | > 256 µg/mL | > 256 µg/mL | 1 µg/mL (≈ 2.73 µM)
COC(=O)c1ccc(S(=O)(=O)Nc2cccc3ccc(CN(C)C)nc23)cc1 [ZDR069, Methyl 4-(N-(2-((dimethylamino)methyl)quinolin-8-yl)sulfamoyl)benzoate] |  |  |  |  |  |  | 256 µg/mL (≈ 641 µM) | > 256 µg/mL | > 256 µg/mL | > 256 µg/mL | > 256 µg/mL | 0.25 µg/mL (≈ 0.626 µM)
CC(=O)c1ccc(S(=O)(=O)Nc2cccc3ccc(CN(C)C)nc23)cc1 [ZDR070, 4-Acetyl-N-(2-((dimethylamino)methyl)quinolin-8-yl)benzenesulfonamide] |  |  |  |  |  |  | > 256 µg/mL | > 256 µg/mL | > 256 µg/mL | > 256 µg/mL | > 256 µg/mL | 0.5 µg/mL (≈ 1.3 µM)
CN(C)Cc1ccc2cccc(NS(=O)(=O)c3ccc(S(C)(=O)=O)cc3)c2n1 [ZDR071, N-(2-((Dimethylamino)methyl)quinolin-8-yl)-4-(methylsulfonyl)benzenesulfonamide] |  |  |  |  |  |  | > 256 µg/mL | > 256 µg/mL | > 256 µg/mL | > 256 µg/mL | > 256 µg/mL | 4 µg/mL (≈ 9.53 µM)
CC(=O)Nc1ccc(S(=O)(=O)Nc2cccc3ccc(CN(C)C)nc23)cc1 [ZDR072, N-(4-(N-(2-((Dimethylamino)methyl)quinolin-8-yl)sulfamoyl)phenyl)acetamide] |  |  |  |  |  |  | > 256 µg/mL | > 256 µg/mL | > 256 µg/mL | > 256 µg/mL | 256 µg/mL (≈ 642 µM) | 32 µg/mL (≈ 80.3 µM)
CN(C)Cc1ccc2cccc(NS(=O)(=O)c3ccc(C(N)=O)cc3)c2n1 [ZDR073, 4-(N-(2-((Dimethylamino)methyl)quinolin-8-yl)sulfamoyl)benzamide] |  |  |  |  |  |  | > 256 µg/mL | > 256 µg/mL | > 256 µg/mL | > 256 µg/mL | > 256 µg/mL | 8 µg/mL (≈ 20.8 µM)
CN(C)Cc1ccc2cccc(NS(=O)(=O)c3cccc(C(F)(F)F)c3)c2n1 [ZDR074, N-(2-((Dimethylamino)methyl)quinolin-8-yl)-3-(trifluoromethyl)benzenesulfonamide] |  |  |  |  |  |  | > 256 µg/mL | > 256 µg/mL | 256 µg/mL (≈ 625 µM) | 256 µg/mL (≈ 625 µM) | > 256 µg/mL | 0.0625 µg/mL (≈ 0.153 µM)
CN(C)Cc1ccc2cccc(NS(=O)(=O)c3ccccc3C(F)(F)F)c2n1 [ZDR075, N-(2-((Dimethylamino)methyl)quinolin-8-yl)-2-(trifluoromethyl)benzenesulfonamide] |  |  |  |  |  |  | > 256 µg/mL | > 256 µg/mL | > 256 µg/mL | > 256 µg/mL | 256 µg/mL (≈ 625 µM) | 0.125 µg/mL (≈ 0.305 µM)
CN(C)Cc1ccc2cccc(NS(=O)(=O)c3cccc(C#N)c3)c2n1 [ZDR076, 3-cyano-N-(2-((dimethylamino)methyl)quinolin-8-yl)benzenesulfonamide] |  |  |  |  |  |  | > 256 µg/mL | > 256 µg/mL | > 256 µg/mL | > 256 µg/mL | > 256 µg/mL | 1 µg/mL (≈ 2.73 µM)
CN(C)Cc1ccc2cccc(NS(=O)(=O)c3ccccc3C#N)c2n1 [ZDR077, N-(2-((Dimethylamino)methyl)quinolin-8-yl)-2-cyanobenzenesulfonamide] |  |  |  |  |  |  | > 256 µg/mL | > 256 µg/mL | > 256 µg/mL | > 256 µg/mL | > 256 µg/mL | 1 µg/mL (≈ 2.73 µM)
CN(C)Cc1ccc2cccc(NS(C)(=O)=O)c2n1 [ZDR078, N-(2-((Dimethylamino)methyl)quinolin-8-yl)methanesulfonamide] |  |  |  |  |  |  | > 256 µg/mL | > 256 µg/mL | > 256 µg/mL | > 256 µg/mL | > 256 µg/mL | 2 µg/mL (≈ 7.16 µM)
CN(C)Cc1ccc2cccc(NS(=O)(=O)C(F)(F)F)c2n1 [ZDR079, N-(2-((Dimethylamino)methyl)quinolin-8-yl)-1,1,1-trifluoromethanesulfonamide] |  |  |  |  |  |  | > 256 µg/mL | 256 µg/mL (≈ 768 µM) | > 256 µg/mL | 64 µg/mL (≈ 192 µM) | > 256 µg/mL | 0.5 µg/mL (≈ 1.5 µM)
CN(C)Cc1ccc2cccc(NS(=O)(=O)c3cccs3)c2n1 [ZDR080, N-(2-((Dimethylamino)methyl)quinolin-8-yl)thiophene-2-sulfonamide] |  |  |  |  |  |  | > 256 µg/mL | > 256 µg/mL | > 256 µg/mL | > 256 µg/mL | > 256 µg/mL | 0.25 µg/mL (≈ 0.719 µM)
